The target of the assay is T1, TTK (Homo sapiens, UniProt P33981).
T1 sequence (P33981 1-857): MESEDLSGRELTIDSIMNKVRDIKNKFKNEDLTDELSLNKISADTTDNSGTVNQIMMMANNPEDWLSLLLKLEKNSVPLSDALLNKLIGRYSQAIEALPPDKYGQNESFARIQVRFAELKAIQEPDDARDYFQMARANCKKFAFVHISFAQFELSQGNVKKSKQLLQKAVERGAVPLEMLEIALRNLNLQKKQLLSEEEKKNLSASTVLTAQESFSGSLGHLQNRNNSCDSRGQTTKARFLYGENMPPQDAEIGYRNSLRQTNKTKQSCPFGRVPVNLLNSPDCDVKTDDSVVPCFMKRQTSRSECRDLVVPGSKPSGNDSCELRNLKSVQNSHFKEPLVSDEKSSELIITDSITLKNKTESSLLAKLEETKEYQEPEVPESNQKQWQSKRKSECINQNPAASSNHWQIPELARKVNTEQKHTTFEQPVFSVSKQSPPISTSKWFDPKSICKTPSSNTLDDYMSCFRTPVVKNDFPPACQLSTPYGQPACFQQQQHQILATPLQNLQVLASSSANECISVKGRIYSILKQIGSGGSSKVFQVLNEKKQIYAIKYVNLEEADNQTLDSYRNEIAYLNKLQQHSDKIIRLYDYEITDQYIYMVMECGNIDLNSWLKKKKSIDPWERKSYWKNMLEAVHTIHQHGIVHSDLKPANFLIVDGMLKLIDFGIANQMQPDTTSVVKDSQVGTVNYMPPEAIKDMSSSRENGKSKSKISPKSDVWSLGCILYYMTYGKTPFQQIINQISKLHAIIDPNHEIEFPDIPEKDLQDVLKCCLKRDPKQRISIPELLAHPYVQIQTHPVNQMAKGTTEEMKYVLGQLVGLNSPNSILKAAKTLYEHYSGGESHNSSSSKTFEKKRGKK
Kind of assay: TTK inhibitory activity (kinase reaction, Fluorescein-PolyGT substrate, antibody/EDTA stop, Envision read). The assay is classed as biochemical. The conditions noted are these: 0.5 nM TTK, 7 uM ATP, 0.2 uM Fluorescein-PolyGT, 28° C., 30 min. Here is the method: The experiment aims to detect the inhibitory activity of the compound of the present disclosure on TTK in vitro.
The TTK kinase reaction system was 10 μL, including 0.5 nM TTK, test compound over a concentration gradient, 10 mM MgCl2, 2 mM DTT, 7 uM ATP, 0.2 uM Fluorescein-PolyGT (Fluorescein-Poly Glu:Tyr (4:1)), 0.01% Triton X-100, 0.01% BSA, and 50 mM HEPES pH 7.5. The enzyme and the test compound of the present disclosure were added into a 384-well plate, and then a substrate and ATP were added. Then the system was incubated at a constant temperature of 28° C. 30 min after the reaction, 10 μL of a mixed solution of a corresponding antibody and EDTA was added to terminate the reaction, and incubated for 60 min at a constant temperature of 28° C. The data was read on Envision instrument. A curve was plotted with the Log concentration of the inhibitor as the X axis and the inhibition rate as the Y axis, and IC50 was calculated by Y=Bottom+(Top-Bottom)/(1+(IC50/X)^HillSlope).
In turn, `CCOc1cc(-c2nncn2C)ccc1Nc1nc(NCC(C)(C)C)c2cccn2n1` [Compound 1] came in with a half-inhibitory concentration (IC50) of 27 nM.

`CCOc1cc(-c2nncn2C)ccc1Nc1nc(NC2CCCC2)c2cccn2n1` [Compound 3] displayed a half-inhibitory concentration (IC50) of 8.9 nM.

For the compound `CCOc1cc(-c2nncn2C)ccc1Nc1nc(NC2CCOCC2)c2cccn2n1` [Compound 4], 4 nM corresponded to half-maximal inhibition (IC50).

`CCOc1cc(-c2nncn2C)ccc1Nc1nc(NC2CCCCC2)c2c(Cl)ccn2n1` [Compound 10] gave an IC50 of 5.5 nM. This IC50 and that of the compound before are within 1.5-fold of each other.

With `CCOc1cc(-c2nncn2C)ccc1Nc1ncc2ccc(C3=CCCC3)n2n1` [Compound 12], the IC50 worked out at 8.7 nM.

`CCOc1cc(-c2nncn2C)ccc1Nc1ncc2ccc(C3CCCC3)n2n1` [Compound 13] returned an IC50 of 7.1 nM.

`CCOc1cc(-c2nncn2C)ccc1Nc1ncc2ccc(C3CCCCC3)n2n1` [Compound 15] had an IC50 of 4.2 nM.

With `CCOc1cc(-c2nncn2C)ccc1Nc1ncc2ccc(C3CCOCC3)n2n1` [Compound 17], the IC50 was determined as 6.3 nM.

Consider `CCOc1cc(-c2nncn2C)ccc1Nc1ncc2ccc(-c3cnn(C)c3)n2n1` [Compound 18], for which the IC50 stood at 2.1 nM.

(Values after US20230212174A1, “PYRROLO[2,1-F][1,2,4]TRIAZINE DERIVATIVE AND USE THEREOF” (Tencent Technology (Shenzhen) Company Limited, priority 2021, published 2023).)
